The results in this text go back to patent EP4603105A1, “PHARMACEUTICAL COMPOSITION CONTAINING CYCLIC COMPOUND HAVING SELECTIVE KRAS INHIBITORY EFFECT AGAINST HRAS AND NRAS” (CHUGAI SEIYAKU KABUSHIKI KAISHA, priority 2022, dated 2024).

Usually IC50 stands for the concentration that gives 50% inhibition. High values mean weaker potency, low ones greater potency.

SMILES strings stand for the structures.

Test [1] deals with GDP-bound NRAS wild-type protein (Homo sapiens, UniProt P01111). Kind of test: Binding to NRAS by surface plasmon resonance (SPR), KD and KD ratio to KRAS. As to conditions: ratio of KD value for GDP-bound NRAS wild-type protein to KD value for KRAS (SPR). In a few lines: (§1)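 Single-cycle kinetics on GDP-loaded biotin-Avi RAS captured to ~100–300 RU; 75 s ascending injections, 100 µL/min, 30°C. HBS pH 7.4 + 10 mM MgCl2/10 µM GDP/4% DMSO. 1:1 fit, KD.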
In general terms: In SPR one partner is held on a chip, and binding of the other changes the refractive index at the surface.

In a further test the target is HRAS wild-type protein (Homo sapiens, UniProt P01112). Nature of the test: Binding to HRAS by surface plasmon resonance (SPR), KD and KD ratio to KRAS. As to conditions: ratio of KD value for HRAS wild-type protein to KD value for KRAS (SPR). In a few lines:
as §1

Test [2] concerns human lung cancer strain NCI-H441. The test is classed as cell-based. The method, boiled down: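 Proliferation was scored by […] measured after the reagent was added to cultures kept at 37°C in 5% carbon dioxide.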

Chain of HRAS wild-type protein (P01112 whole entry): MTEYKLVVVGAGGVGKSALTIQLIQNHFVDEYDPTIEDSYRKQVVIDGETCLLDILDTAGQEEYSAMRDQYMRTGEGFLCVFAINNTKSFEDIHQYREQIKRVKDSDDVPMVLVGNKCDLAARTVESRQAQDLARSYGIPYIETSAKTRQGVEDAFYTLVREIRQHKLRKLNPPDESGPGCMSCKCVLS
Chain of GDP-bound NRAS wild-type protein (P01111 whole entry): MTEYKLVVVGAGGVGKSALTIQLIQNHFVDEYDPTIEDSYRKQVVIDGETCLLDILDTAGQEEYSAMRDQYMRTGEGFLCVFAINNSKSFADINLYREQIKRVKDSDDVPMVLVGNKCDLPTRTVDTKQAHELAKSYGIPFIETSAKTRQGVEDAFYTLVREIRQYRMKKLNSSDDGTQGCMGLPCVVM

As to `CCCOC[C@H]1C(=O)N[C@@H]([C@@H](C)CC)C(=O)N(C)CC(=O)N(C)[C@H]2C/C=C\CCN(C2=O)[C@@H](Cc2ccc(C(F)(F)F)cc2)C(=O)N(C)CC(=O)N[C@@H](CCc2cc(F)c(C(F)(F)F)c(F)c2)C(=O)N2C[C@H](F)C[C@H]2C(=O)NC2(CC(C)(C)C2)C(=O)N(C)[C@@H](C2CCCC2)C(=O)N(C)[C@H](C(=O)N(C)CCC)CC(=O)N1C` [PP1698], the “NRAS /KRAS” value in test [1] is “A (a compound having 10 or more and less than 20 is denoted as A)”. The “HRAS /KRAS” value on HRAS wild-type protein was “A (a compound having 10 or more and less than 20 is denoted as A)”. The molecule further registered an IC50 in test [2] of 5.1 nM.
Consider `CCCN(C)C(=O)[C@@H]1CC(=O)N(C)[C@@H](CC)C(=O)N[C@@H]([C@@H](C)CC)C(=O)N(C)CC(=O)N(C)[C@H]2C/C=C\CCN(C2=O)[C@@H](Cc2ccc(C(F)(F)F)cc2)C(=O)N(C)CC(=O)N[C@@H](CCc2cc(F)c(C(F)(F)F)c(F)c2)C(=O)N2C[C@H](OCC)C[C@H]2C(=O)NC2(CCC2)C(=O)N(C)[C@@H](C2CCCC2)C(=O)N1C` [PP1699], for which the “NRAS /KRAS” value in test [1] is “A (a compound having 10 or more and less than 20 is denoted as A)”. Further, the “HRAS /KRAS” value on HRAS wild-type protein is “A (a compound having 10 or more and less than 20 is denoted as A)”. The midpoint of inhibition in test [2], the IC50, lay at 2.5 nM.
Regarding `CCCN(C)C(=O)[C@@H]1CC(=O)N(C)[C@@H](CC(F)F)C(=O)N[C@@H]([C@@H](C)CC)C(=O)N(C)CC(=O)N(C)[C@H]2C/C=C\CCN(C2=O)[C@@H](Cc2ccc(C(F)(F)F)cc2)C(=O)N(C)CC(=O)N[C@@H](CCc2cc(F)c(C(F)(F)F)c(F)c2)C(=O)N2C[C@H](OCC)C[C@H]2C(=O)NC2(CCC2)C(=O)N(C)[C@@H](C2CCCC2)C(=O)N1C` [PP1700], in test [1], the “NRAS /KRAS” value was “A (a compound having 10 or more and less than 20 is denoted as A)”. The “HRAS /KRAS” value on HRAS wild-type protein was “A (a compound having 10 or more and less than 20 is denoted as A)”. In addition, the IC50 in test [2] came to 3.6 nM.
Regarding `CCCN(C)C(=O)[C@@H]1CC(=O)N(C)[C@@H](CC(F)(F)F)C(=O)N[C@@H]([C@@H](C)CC)C(=O)N(C)CC(=O)N(C)[C@H]2C/C=C\CCN(C2=O)[C@@H](Cc2ccc(C(F)(F)F)cc2)C(=O)N(C)CC(=O)N[C@@H](CCc2cc(F)c(C(F)(F)F)c(F)c2)C(=O)N2C[C@H](OCC)C[C@H]2C(=O)NC2(CCC2)C(=O)N(C)[C@@H](C2CCCC2)C(=O)N1C` [PP1702], in test [1], the “NRAS /KRAS” value was “A (a compound having 10 or more and less than 20 is denoted as A)”. In addition, on HRAS wild-type protein, the “HRAS /KRAS” value is “A (a compound having 10 or more and less than 20 is denoted as A)”. Further, the half-inhibitory concentration (IC50) in test [2] is 4.9 nM.
For `C#CC[C@H]1C(=O)N[C@@H]([C@@H](C)CC)C(=O)N(C)CC(=O)N(C)[C@H]2C/C=C\CCN(C2=O)[C@@H](Cc2ccc(C(F)(F)F)cc2)C(=O)N(C)CC(=O)N[C@@H](CCc2cc(F)c(C(F)(F)F)c(F)c2)C(=O)N2C[C@H](OCC)C[C@H]2C(=O)NC2(CCC2)C(=O)N(C)[C@@H](C2CCCC2)C(=O)N(C)[C@H](C(=O)N(C)CCC)CC(=O)N1C` [PP1703], the “NRAS /KRAS” value in test [1] is “A (a compound having 10 or more and less than 20 is denoted as A)”. For the same molecule, the “HRAS /KRAS” value on HRAS wild-type protein is “A (a compound having 10 or more and less than 20 is denoted as A)”. For the same molecule, the IC50 in test [2] worked out at 7.2 nM.
As to `CCCC[C@H]1C(=O)N[C@@H]([C@@H](C)CC)C(=O)N(C)CC(=O)N(C)[C@H]2C/C=C\CCN(C2=O)[C@@H](Cc2ccc(C(F)(F)F)cc2)C(=O)N(C)CC(=O)N[C@@H](CCc2cc(F)c(C(F)(F)F)c(F)c2)C(=O)N2C[C@H](OCC)C[C@H]2C(=O)NC2(CCC2)C(=O)N(C)[C@@H](C2CCCC2)C(=O)N(C)[C@H](C(=O)N(C)CCC)CC(=O)N1C` [PP1704], the “NRAS /KRAS” value in test [1] was “A (a compound having 10 or more and less than 20 is denoted as A)”. Also, the “HRAS /KRAS” value at HRAS wild-type protein is “A (a compound having 10 or more and less than 20 is denoted as A)”. The IC50 in test [2] amounted to 10.3 nM.
